From the supplement of paper PMC10702517
± gives the standard deviation.

test: chemical recovery into PDMS from spiked human plasma; higher = better extraction; conditions: pooled human plasma; extraction method: PES with PDMS; equilibration time (d): 1

| Compound | chemical recovery into PDMS [%] |
| --- | --- |
| Nc1ccc(-c2ccc(N)c(Cl)c2)cc1Cl [3,3'-Dichlorobenzidine] | 3.87 ± 0.23 |
| Clc1cc(Cl)c(-c2cc(Cl)c(Cl)cc2Cl)cc1Cl [PCB153] | 55.1 ± 6.8 |
| C#C[C@]1(O)C=C[C@H]2[C@@H]3CCC4=CC(=O)CC[C@@H]4[C@H]3CC[C@@]21CC [Gestoden] | 34.1 ± 1.7 |
| c1ccc2c(c1)[nH]c1cnccc12 [Norharmane] | 24.8 ± 1.2 |
| O=C1CCCC=CCCCCCCCCCC1 [Velvione] | 41.7 ± 2.9 |
| Cc1c(C(C)C)c(=O)n(-c2ccccc2)n1C [Propyphenazone] | 17.3 ± 1.9 |
| CCCOP(=O)(OCCC)OCCC [Tripropyl phosphate] | 29.8 ± 6.3 |

same assay, conditions: pooled human plasma; extraction method: PES with PDMS; equilibration time (d): 3

| Compound | chemical recovery into PDMS [%] |
| --- | --- |
| CCCCc1oc2ccccc2c1C(=O)c1cc(I)c(OCCN(CC)CC)c(I)c1 [Amiodarone] | 0.131 ± 0.037 |
| CN(C)C(=O)Nc1ccc(Cl)c(Cl)c1 [Diuron] | 36.3 ± 1.6 |
| O=C(O)c1ccc(Cl)cc1Cl [2,4-Dichlorobenzoic acid] | 0.296 ± 0.12 |
| Oc1ccc(Cl)cc1Cc1cc(Cl)ccc1O [Dichlorophen] | 1.88 ± 0.2 |
| CO/C=C(/C(=O)OC)c1ccccc1COc1cccc(C(F)(F)F)n1 [Picoxystrobin] | 48.5 ± 5.8 |
| CCCCC(=O)O[C@]1(C(=O)CO)[C@@H](C)C[C@H]2[C@@H]3CCC4=CC(=O)C=C[C@]4(C)[C@@]3(F)[C@@H](O)C[C@@]21C [Betamethasone-17-valerate] | 18.8 ± 1.3 |
| CC(=O)[C@@]1(O)CC[C@H]2[C@@H]3C[C@H](C)C4=CC(=O)C=C[C@]4(C)[C@@]3(F)[C@@H](O)C[C@@]21C [Fluorometholone] | 3.75 ± 0.69 |
| CNC1=C(c2cccc(C(F)(F)F)c2)C(=O)C(c2ccccc2)O1 (configuration not stated) [Flurtamone] | 4.2 ± 2 |
| Cc1cc(C2CCCCC2)n(O)c(=O)c1 [Ciclopirox] | 20 ± 2.6 |
| c1ccc2sc(NC3CCCCC3)nc2c1 [N-Cyclohexyl-2-benzothiazole-amine] | 34 ± 3 |
| C/C(=N\C#N)N(C)Cc1ccc(Cl)nc1 [Acetamiprid] | 15.7 ± 2.8 |
| c1ccc(-c2ccc(C(c3ccccc3)n3ccnc3)cc2)cc1 (configuration not stated) [Bifonazol] | 38.5 ± 4.5 |
| ClC1=C(Cl)C2(Cl)C3C4C=CC(C4)C3C1(Cl)C2(Cl)Cl (configuration not stated) [Aldrin] | 90.4 ± 12 |
| c1ccc(-c2ccccc2-c2ccccc2)cc1 [o-Terphenyl] | 81.5 ± 8.2 |
| Cc1ccc(NC(=O)N(C)C)cc1Cl [Chlorotoluron] | 34.9 ± 1.4 |
| CCNc1nc(NC(C)(C)C)nc(SC)n1 [Terbutryn] | 21.5 ± 6.8 |
| CCOC(=O)C1=C(C)NC(C)=C(C(=O)OC)C1c1cccc([N+](=O)[O-])c1 (configuration not stated) [Nitrendipin] | 17.4 ± 3.6 |
| COCC(=O)N(c1c(C)cccc1C)C(C)C(=O)OC (configuration not stated) [Metalaxyl] | 36.7 ± 3.2 |
| O=P(c1ccccc1)(c1ccccc1)c1ccccc1 [Triphenylphosphine oxide] | 44.6 ± 2.8 |
| C=CCOC(Cn1ccnc1)c1ccc(Cl)cc1Cl (configuration not stated) [Imazalil] | 20.6 ± 1 |
| O=C(Nc1ccccc1-c1ccc(Cl)cc1)c1cccnc1Cl [Boscalid] | 45.5 ± 2.2 |
| Clc1ccc(Cl)c(-c2cc(Cl)c(Cl)cc2Cl)c1 [PCB101] | 98.4 ± 14 |
| C[C@H]1C[C@H]2[C@@H]3CCC4=CC(=O)C=C[C@]4(C)[C@@]3(F)[C@@H](O)C[C@]2(C)[C@@]1(O)C(=O)CCl [Clobetasol] | 4.53 ± 1.1 |

| Compound | chemical recovery into PDMS [%] |
| --- | --- |
| CC(CCl)OP(=O)(OC(C)CCl)OC(C)CCl (configuration not stated) [Tris(1-chloro-2-propyl)phosphate] | 44.3 ± 3.9 |
| Clc1ccc2c(c1)CCc1cccnc1C2=C1CCNCC1 [Desloratadine] | 0.0639 ± 0.025 |
| Cc1cc(C2CC2)nc(Nc2ccccc2)n1 [Cyprodinil] | 36.1 ± 3.9 |
| CC1CCc2cc(F)cc3c(=O)c(C(=O)O)cn1c23 (configuration not stated) [Flumequine] | 2.26 ± 0.88 |
| CCCCC(C#N)(Cn1cncn1)c1ccc(Cl)cc1 (configuration not stated) [Myclobutanil] | 42.1 ± 3.6 |
| CCCCc1c(C)nc(NCC)nc1OS(=O)(=O)N(C)C [Bupirimate] | 43.9 ± 4.2 |
| CC(=O)CCCCn1c(=O)c2c(ncn2C)n(C)c1=O [Pentoxifylline] | 24.5 ± 3.9 |
| COCC(C)N(C(=O)CCl)c1c(C)csc1C (configuration not stated) [Dimethenamid] | 46.1 ± 4.6 |
| Cc1cc(=O)oc2cc(N)ccc12 [7-Amino-4-methylcoumarin] | 17.9 ± 2.4 |
| COCCN(C(=O)CCl)c1c(C)cccc1C [Dimethachlor] | 37.6 ± 4.3 |
| Oc1ccc(Cl)cc1Cc1ccccc1 [Chlorophene] | 15.4 ± 0.93 |
| COC[P+](c1ccccc1)(c1ccccc1)c1ccccc1 [(Methoxymethyl)triphenylphosphonium] | 0.00031 ± 0.0019 |
| CC(=O)c1cc2c(cc1C)C(C)(C)C(C)CC2(C)C (configuration not stated) [Tonalide] | 48.1 ± 5.2 |
| Cc1cc(Cc2ccc(N)c(C)c2)ccc1N [4,4'-Methylene-bis(2-methyl aniline)] | 0.00421 ± 0.0073 |
| Cc1ccc(S(N)(=O)=O)cc1 [p-Toluenesulfonamide] | 1.8 ± 0.5 |
| C[C@]12CCC(=O)C=C1[C@@H]1C[C@@H]1[C@H]1[C@@H]3[C@@H]4C[C@@H]4[C@@]4(CCC(=O)O4)[C@@]3(C)CC[C@@H]12 [Drospirenone] | 45.7 ± 3 |
| c1ccc(/N=N/c2ccccc2)cc1 [Azobenzene] | 28.4 ± 5.6 |
| CO/C=C(/C(=O)O)c1ccccc1Oc1cc(Oc2ccccc2C#N)ncn1 [Azoxystrobin acid] | 0.00158 ± 0.0027 |
| Nc1ccc(-c2ccc(N)c(Cl)c2)cc1Cl [3,3'-Dichlorobenzidine] | 3.04 ± 0.4 |
| Clc1cc(Cl)c(-c2cc(Cl)c(Cl)cc2Cl)cc1Cl [PCB153] | 86.4 ± 3.6 |
| C#C[C@]1(O)C=C[C@H]2[C@@H]3CCC4=CC(=O)CC[C@@H]4[C@H]3CC[C@@]21CC [Gestoden] | 43 ± 2.3 |
| c1ccc2c(c1)[nH]c1cnccc12 [Norharmane] | 28.3 ± 0.84 |
